Where two headings read alike, the source gives them in different places.
What was measured:
[1] = biological target: human GABAA α1β3γ2 receptor (Homo sapiens (Human), UniProt P14867+P18507); assay: Radioligand binding assay, competition for [3H]Flumazenil, γ2-containing GABAA subtypes; conditions: for γ2/γ1 Selectivity Ratio: Ki α1β3γ2 (nM)/Ki α2β2γ1 (nM); for LogSel: Log[Ki α1β3γ2 (nM)/Ki α2β2γ1 (nM)]
Protocol: Membrane Preparation and Binding Assay for γ2-containing GABAA Subtypes
The affinity of compounds at GABAA γ2 subunit-containing receptors was measured by competition for [^3H]Flumazenil (81.1 Ci/mmol; Roche) binding to HEK293F cells expressing human (transiently transfected) receptors of composition α1β3γ2.
Harvested pellets from HEK293F cells expressing the different GABAA γ2 receptor subtypes were resuspended in Mannitol Buffer pH 7,2-7,4 and processed as described above for the cells expressing the GABAA γ1 subunit-containing receptors.
Assays were incubated to equilibrium for 1 hour at 4° C, and harvested onto GF/C uni-filters (Packard) by filtration using a Packard harvester and washing with ice-cold wash buffer (50 mM Tris; pH 7.5). After anhydrousing, filter-retained radioactivity was detected by liquid scintillation counting. Ki values were calculated using Excel-Fit (Microsoft) and are the means of two determinations.

[2] = biological target: human GABAA α2β2γ1 receptor (Homo sapiens (Human), UniProt P47869+Q8N1C3); assay: Radioligand binding assay, competition for [3H]RO7239181, γ1-containing GABAA subtypes
Protocol: (§1) Membrane Preparation and Binding Assay for γ1-containing GABAA Subtypes
(§2) The affinity of compounds at GABAA γ1 subunit-containing receptors was measured by competition for [^3H]RO7239181 (67.3 Ci/mmol: Roche) binding to membranes from HEK293F cells (ThermoFisher R79007) expressing human (transiently transfected) receptors of composition α5β2γ1, α2β2γ1, α1β2γ1.
(§3) Harvested pellets from HEK293F cells expressing the different GABAA receptor subtypes were resuspended in Mannitol Buffer pH 7.2-7.4 (Mannitol 0.29 M, Tricthylamine 10 mM. Acetic acid 10 mM. EDTA 1 mM plus protease inhibitors (20 tablets Complete. Roche Diagnostics Cat. No. 05 056 489 001 per liter)), washed two times and then resuspended at 1:10 to 1:15 dilution in the same buffer. Cell disruption was performed by stirring the suspension in a Parr vessel #4637 at 435 psi for 15 minutes, and then the suspensions were centrifuged at 1000×g for 15 minutes at 4° C. (Beckman Avanti J-HC: rotor JS-4.2). The supernatant (S1) was transferred in a 21 Schott flask and the pellet (P1) was resuspended with Mannitol Buffer up to 175 ml. The resuspended pellet was transferred into a 250 ml Corning centrifugal beaker and centrifuged at 1500 ×g for 10 minutes at 4° C. (Beckman Avanti J-HC: rotor JS-4.2). The supernatant (S1) was then transferred in the 21 Schott flask and the pellet was discarded. The supernatants (S1) were centrifuged in 500ml Beckman polypropylene centrifugal beaker at 15 000×g for 30 minutes at 4° C. (Beckman Avanti J-20 XP; rotor JLA-10.500). The pellet (P2) was resuspended with Mannitol Buffer 1:1 and frozen at −80° C. The supernatant (S2) was centrifuged in 100 ml Beckman polypropylene centrifugal tubes at 48000×g for 50 minutes at 4 °C (Beckman Avanti J-20 XP: rotor JA-18). The supernatant (S3) was discarded and the pellet (P3) was resuspended with 1:1 Mannitol Buffer. The P2 and P3 protein concentration was determined with the BIORAD Standard assay method with bovine serum albumin as standard and measured on the NANO-Drop 1000. The membrane suspension was aliquots (500μl per tube) and stored at −80° C. until required.
(§4) Membrane homogenates were resuspended and polytronised (Polytron PT1200E Kinematica AG) in Potassium Phosphate 10 mM, KCl 100 mM binding buffer at pH 7.4 to a final assay concentration determined with a previous experiment.
(§5) Radioligand binding assays were carried out in a volume of 200 μL (96-well plates) which contained 100 μL of cell membranes. […] Assays were incubated to equilibrium for 1 hour at 4° C. and then, membranes were filtered onto unifilter (96-well white microplate with bonded GF/C filters preincubated 20-50 minutes in 0.3% Polyethylenimine) with a Filtermate 196 harvester (Packard BioScience) and washed 4 times with cold Potassium Phosphate 10 mM pH 7.4. KCl 100 mM binding buffer. After anhydrousing, filter-retained radioactivity was detected by liquid scintillation counting. Ki values were calculated using Excel-Fit (Microsoft) and are the means of two determinations.

[3] = biological target: h-GABA-A α2β2γ1 receptor expressed in Xenopus laevis oocytes (Homo sapiens (Human), UniProt P47869+Q8N1C3); assay: Two-electrode voltage clamp electrophysiology in Xenopus oocytes expressing GABAA receptors; type: cell-based; conditions: reference PAMs, GABA EC20
Text: Functional Expression of GABAA Receptors:
Xenopus Oocytes Preparation
Xenopus laevis oocytes at maturation stages V-VI were used for the expression of cloned mRNA encoding GABAA receptor subunits. Oocytes ready for RNA micro-injection were bought from Ecocyte, Castrop-Rauxel, Germany and stored in modified Barth's medium (composition in mM: NaCl 88, KCl 1, NaHCO3 2.4, HEPES 10, MgSO4 0.82, CaNO3 0.33, CaCl2 0.33, pH=7.5) at 20 C. until the experiment.
Xenopus Oocytes Microinjection
Oocytes were plated in 96-well plates for microinjection using the Roboinject automated instrument (MultiChannelSystems, Reutlingen, Germany). Approximately 50 nL of an aqueous solution containing the RNA transcripts for the subunits of the desired GABAA receptor subtype was injected into each oocyte. […] Oocytes were kept in modified Barth's medium (composition in mM: NaCl 88, KCl 1, NaHCO3 […], HEPES 10, MgSO4 0.82, CaNO3 0.33, CaCl2 0.33, pH=7.5) at 20° C. until the experiment.
Electrophysiological experiments were performed using the Roboocyte instrument (MultiChannelSystems, Reutlingen, Germany) on days 3 to 5 after the micro-injection of mRNA. During the experiment the oocytes were constantly superfused by a solution containing (in mM) NaCl 90, KCl 1, HEPES 5, MgCl: 1, CaCl, 1 (pH 7.4). Oocytes were impaled by two glass microelectrodes (resistance: 0.5-0.8 MS2) which were filled with a solution containing KCl 1M +K-acetate 1.5 M and voltage-clamped to −80 mV. The recordings were performed at room temperature using the Roboocyte two-electrode voltage clamp system (Multichannelsystem). After an initial equilibration period of 1.5 min GABA was added for 1.5 min at a concentration evoking approximately 20% of a maximal current response (EC20). After another rest interval of 2.5 min GABA was again added evoking a response of similar amplitude and shape. […] Current traces were recorded at a digitization rate of 10 Hz during and shortly before and after the GABA application.
Each compound and concentration was tested on at least 3 oocytes. Different oocytes were used for different compound concentrations.
For the analysis, the digitized current traces of the first and second GABA response were superimposed and, if necessary, rescaled to equal maximal amplitudes. The ratio between the two responses during the time interval of test compound application was calculated point by point. The extremum of the resulting “ratio trace” was taken as the efficacy (“Fold increase”) of the compound expressed as “% modulation of GABA EC” (100* (Fold increase-1)).

[4] = biological target: human GABAA α1β2γ1 receptor (Homo sapiens (Human), UniProt P14867+Q8N1C3); assay: Radioligand binding assay, competition for [3H]RO7239181, γ1-containing GABAA subtypes
Protocol: as §1, §2, §3, §4, §5

[5] = biological target: human GABAA α5β2γ1 receptor (Homo sapiens (Human), UniProt P31644+Q8N1C3); assay: as above; conditions: membranes from HEK293F cells, mean of two determinations
Protocol: as §1
as §2, with “α1β2γ1. For better protein expression of the α2 subunit-containing receptors, the 28 amino acid long signal peptide (Metl to Ala28) of the human GABAA α2 subunit was substituted by the 31 amino acid long signal peptide (Met1 to Ser31) of human GABAA α5 subunit.” for “α1β2γ1.”
as §3, §4
Radioligand binding assays were carried out in a volume of 200 μL (96-well plates) which contained 100 μL of cell membranes. [^3H]RO7239181 at a concentration of 1.5 nM (α5β2γ1) or 20-30 nM (α1β2γ1, α2β2γ1) and the test compound in the range of [0.3-10000]33 10^−9 M. Nonspecific binding was defined by […] (α5β2γ1) and […] RO7239181 and typically represented less than 5% (α5β2γ1) and less than 20% (α1β2γ1, α2β2γ1) of the total binding. Assays were incubated to equilibrium for 1 hour at 4° C. and then, membranes were filtered onto unifilter (96-well white microplate with bonded GF/C filters preincubated 20-50 minutes in 0.3% Polyethylenimine) with a Filtermate 196 harvester (Packard BioScience) and washed 4 times with cold Potassium Phosphate 10 mM pH 7.4. KCl 100 mM binding buffer. After anhydrousing, filter-retained radioactivity was detected by liquid scintillation counting. Ki values were calculated using Excel-Fit (Microsoft) and are the means of two determinations.
Representative test results, obtained by the above described assay measuring binding affinity to HEK293 cells expressing human (h) receptors, are shown in the Table 1.

| SMILES | γ2/γ1 Selectivity Ratio [1] | LogSel [1] | Ki [1] [nM] | Ki [2] [nM] | potentiation of the GABA-induced current in α2β2γ1 GABAA receptor subtype expressing oocytes [3] [%] | Ki [4] [nM] | Ki ([2]; read-out: Ki h-GABAA α2β2γ1, membranes from HEK293F cells, [3H]RO7239181 20-30 nM, mean of two determinations) [nM] | Ki [5] [nM] | Ki ([1]; HEK293F cell membranes, [3H]Flumazenil 1 nM, mean of two determinations, read-out: Ki h-GABAA α1β3γ2) [nM] |
| --- | --- | --- | --- | --- | --- | --- | --- | --- | --- |
| Cc1nnc2n1-c1ccc(Cl)cc1C(c1ccccc1)=NC2 [Alprazolam, reference compound] | 0.0050 | −2.3 | – | – | – | – | – | – | – |
| Cc1nnc2n1-c1sc3c(c1C(c1ccccc1Cl)=NC2)CCC3 [RE-A, reference compound] | 0.38 | −0.42 | 6.6 | 17.5 | – | – | – | – | – |
| Cc1nnc2n1-c1ccc(Cl)cc1C(c1ccccc1Cl)=NC2 [Triazolam, reference compound] | – | −1.5 | – | – | ~60 | – | – | – | – |
| Cc1ncc2n1-c1ccc(Cl)cc1C(c1ccccc1F)=NC2 [Midazolam, reference compound] | 0.0068 | −2.2 | – | – | ~60 | – | – | – | – |
| Cc1nnc2n1-c1sc3c(c1C(c1c(F)cccc1F)=N[C@H]2C)CCC3 [RE-C, (7S)-9-(2,6-difluorophenyl)-3,7-dimethyl-16-thia-2,4,5,8-tetrazatetracyclo [8.6.0.02,6.011,15]hexadeca-1(10),3,5,8,11(15)-pentaene, reference compound] | 0.84 | −0.07 | 17.2 | 20.4 | – | 2.59 | – | – | – |
| C[C@@H]1N=C(c2c(F)cccc2F)c2c(sc3c2C[C@H](C(F)F)C3)-n2c(CO)cnc21 [Example 22, [(7S,13S)-13-(difluoromethyl)-9-(2,6-difluorophenyl)-7-methyl-16-thia-2,5,8-triazatetracyclo [8.6.0.02,6.011,15]hexadeca-1(10),3,5,8,11(15)-pentaen-3-yl]methanol] | – | 1.75 | 2510 | 10.2 | – | – | 10.2 | 44.3 | – |
| CN1C(=O)CN=C(c2ccccc2F)c2cc([N+](=O)[O-])ccc21 [Flunitrazepam, reference compound] | – | – | – | – | ~60 | – | – | – | – |
| CCOC(=O)C1Cc2sc3c(c2C1)C(c1ccccc1Cl)=NCc1nnc(C)n1-3 (centres unmarked) [RE-B, reference compound] | 1.66 | 0.22 | – | 734 | – | – | – | – | 1220 |

Source: patent US20240190889A1, “NEW CYCLOPENTA-THIENO-DIAZEPINE DERIVATIVES AS GABA A GAMMA1 POSITIVE ALLOSTERIC MODULATORS” (Hoffmann-La Roche Inc., priority 2021, published 2024)
